Assay results published in the NIST ThermoML archive (doi:10.1016/j.fluid.2018.04.025).

Test: xn = mol fraction of the nth substance listed
Details: 101 kPa, Liquid; for viscosity: Falling or rolling sphere viscometry; for speed of sound: Frequency=3 MHz, Sing-around technique in a fixed-path interferometer; for mass density: Vibrating tube method

CCCC[n+]1ccn(C)c1.O=S(=O)([N-]S(=O)(=O)C(F)(F)F)C(F)(F)F + CCCCO
Details	mass density [kg/m3]	speed of sound [m/s]	viscosity [mPa·s]
298.15 K, x1 = 0.1041	977.145	1204.1	4.37
298.15 K, x1 = 0.203	1088.59	1195.1	6.8
298.15 K, x1 = 0.3026	1170.97	1196.1	9.05
298.15 K, x1 = 0.409	1238.03	1200.2	11.83
298.15 K, x1 = 0.4987	1282.27	1204.3	14.91
298.15 K, x1 = 0.603	1325.15	1209.3	19.73
298.15 K, x1 = 0.6973	1357.81	1214.1	24.95
298.15 K, x1 = 0.809	1390.36	1219.2	32.11
298.15 K, x1 = 0.9104	1415.6	1223	40.26
298.15 K, x1 = 1	1436.02	1227.3	51.22
303.15 K, x1 = 0.1041	972.795	1189.7	3.85
303.15 K, x1 = 0.203	1084	1181.7	5.85
303.15 K, x1 = 0.3026	1166.33	1183.4	7.68
303.15 K, x1 = 0.409	1233.48	1188.1	9.93
303.15 K, x1 = 0.4987	1277.72	1192.4	12.53
303.15 K, x1 = 0.603	1320.71	1197.7	16.62
303.15 K, x1 = 0.6973	1353.3	1202.5	20.95
303.15 K, x1 = 0.809	1385.78	1207.8	26.73
303.15 K, x1 = 0.9104	1411.02	1211.9	33.01
303.15 K, x1 = 1	1431.22	1216.3	41.91
308.15 K, x1 = 0.1041	968.785	1175.3	3.27
308.15 K, x1 = 0.203	1079.65	1168.5	5.03
308.15 K, x1 = 0.3026	1161.89	1170.8	6.62
308.15 K, x1 = 0.409	1228.96	1176	8.51
308.15 K, x1 = 0.4987	1273.42	1180.7	10.71
308.15 K, x1 = 0.603	1316.29	1186.2	14.13
308.15 K, x1 = 0.6973	1348.83	1191.2	17.82
308.15 K, x1 = 0.809	1381.24	1196.7	22.61
308.15 K, x1 = 0.9104	1406.45	1200.9	27.62
308.15 K, x1 = 1	1426.43	1205.5	34.63
313.15 K, x1 = 0.1041	964.582	1161	2.87
313.15 K, x1 = 0.203	1075.17	1155.3	4.39
313.15 K, x1 = 0.3026	1157.28	1158.3	5.75
313.15 K, x1 = 0.409	1224.36	1163.9	7.36
313.15 K, x1 = 0.4987	1268.95	1168.9	9.24
313.15 K, x1 = 0.603	1311.81	1174.7	12.24
313.15 K, x1 = 0.6973	1344.2	1180	15.31
313.15 K, x1 = 0.809	1376.73	1185.6	19.32
313.15 K, x1 = 0.9104	1401.97	1189.9	23.41
313.15 K, x1 = 1	1421.64	1194.7	28.93
318.15 K, x1 = 0.1041	960.208	1146.9	2.53
318.15 K, x1 = 0.203	1070.62	1142.3	3.86
318.15 K, x1 = 0.3026	1152.59	1145.8	5.04
318.15 K, x1 = 0.409	1219.7	1151.9	6.42
318.15 K, x1 = 0.4987	1264.59	1157.2	8.04
318.15 K, x1 = 0.603	1307.37	1163.4	10.61
318.15 K, x1 = 0.6973	1339.66	1168.8	13.32
318.15 K, x1 = 0.809	1372.24	1174.6	16.64
318.15 K, x1 = 0.9104	1397.35	1179.1	19.93
318.15 K, x1 = 1	1416.84	1184	24.63
323.15 K, x1 = 0.1041	955.94	1132.9	2.24
323.15 K, x1 = 0.203	1065.98	1129.4	3.42
323.15 K, x1 = 0.3026	1147.85	1133.5	4.45
323.15 K, x1 = 0.409	1214.91	1140	5.65
323.15 K, x1 = 0.4987	1259.97	1145.7	7.07
323.15 K, x1 = 0.603	1302.8	1152.1	9.29
323.15 K, x1 = 0.6973	1335.11	1157.8	11.74
323.15 K, x1 = 0.809	1367.53	1163.8	14.53
323.15 K, x1 = 0.9104	1392.5	1168.4	17.32
323.15 K, x1 = 1	1411.89	1173.5	21.11
